The source of these data is paper PMC7939385, “Disease-associated mutations in inositol 1,4,5-trisphosphate receptor subunits impair channel function” (The Journal of Biological Chemistry, 2021).

In experiment [1] the target is T1, WT rIP3R1 (Rattus norvegicus, UniProt C7E1V2, N602D).
T1 construct: gene Itpr1; homotetramer, ~300 kDa subunit; Methods give NM_001270596, footnote NM_001007235
The experiment is described as follows: competitive [3H]IP3 radioligand binding on immunoprecipitated receptor.

A further experiment has as its target T2, WT mIP3R2 (Mus musculus, UniProt Q9Z329).
T2 construct: gene Itpr2; homotetramer
In words: [3H]IP3 binding on immunoprecipitated receptor. To be noted: 2.5 nM [3H]IP3 with 50 uM unlabelled IP3 for nonspecific binding; pH 8, 4 °C, 1 h; labelled compound.

The target in experiment [2] is T3, WT rIP3R1 (Rattus norvegicus, UniProt C7E1V2).
T3 construct: gene Itpr1; homotetramer, ~300 kDa subunit; Methods give NM_001270596, footnote NM_001007235
T3 sequence (C7E1V2 1-2748): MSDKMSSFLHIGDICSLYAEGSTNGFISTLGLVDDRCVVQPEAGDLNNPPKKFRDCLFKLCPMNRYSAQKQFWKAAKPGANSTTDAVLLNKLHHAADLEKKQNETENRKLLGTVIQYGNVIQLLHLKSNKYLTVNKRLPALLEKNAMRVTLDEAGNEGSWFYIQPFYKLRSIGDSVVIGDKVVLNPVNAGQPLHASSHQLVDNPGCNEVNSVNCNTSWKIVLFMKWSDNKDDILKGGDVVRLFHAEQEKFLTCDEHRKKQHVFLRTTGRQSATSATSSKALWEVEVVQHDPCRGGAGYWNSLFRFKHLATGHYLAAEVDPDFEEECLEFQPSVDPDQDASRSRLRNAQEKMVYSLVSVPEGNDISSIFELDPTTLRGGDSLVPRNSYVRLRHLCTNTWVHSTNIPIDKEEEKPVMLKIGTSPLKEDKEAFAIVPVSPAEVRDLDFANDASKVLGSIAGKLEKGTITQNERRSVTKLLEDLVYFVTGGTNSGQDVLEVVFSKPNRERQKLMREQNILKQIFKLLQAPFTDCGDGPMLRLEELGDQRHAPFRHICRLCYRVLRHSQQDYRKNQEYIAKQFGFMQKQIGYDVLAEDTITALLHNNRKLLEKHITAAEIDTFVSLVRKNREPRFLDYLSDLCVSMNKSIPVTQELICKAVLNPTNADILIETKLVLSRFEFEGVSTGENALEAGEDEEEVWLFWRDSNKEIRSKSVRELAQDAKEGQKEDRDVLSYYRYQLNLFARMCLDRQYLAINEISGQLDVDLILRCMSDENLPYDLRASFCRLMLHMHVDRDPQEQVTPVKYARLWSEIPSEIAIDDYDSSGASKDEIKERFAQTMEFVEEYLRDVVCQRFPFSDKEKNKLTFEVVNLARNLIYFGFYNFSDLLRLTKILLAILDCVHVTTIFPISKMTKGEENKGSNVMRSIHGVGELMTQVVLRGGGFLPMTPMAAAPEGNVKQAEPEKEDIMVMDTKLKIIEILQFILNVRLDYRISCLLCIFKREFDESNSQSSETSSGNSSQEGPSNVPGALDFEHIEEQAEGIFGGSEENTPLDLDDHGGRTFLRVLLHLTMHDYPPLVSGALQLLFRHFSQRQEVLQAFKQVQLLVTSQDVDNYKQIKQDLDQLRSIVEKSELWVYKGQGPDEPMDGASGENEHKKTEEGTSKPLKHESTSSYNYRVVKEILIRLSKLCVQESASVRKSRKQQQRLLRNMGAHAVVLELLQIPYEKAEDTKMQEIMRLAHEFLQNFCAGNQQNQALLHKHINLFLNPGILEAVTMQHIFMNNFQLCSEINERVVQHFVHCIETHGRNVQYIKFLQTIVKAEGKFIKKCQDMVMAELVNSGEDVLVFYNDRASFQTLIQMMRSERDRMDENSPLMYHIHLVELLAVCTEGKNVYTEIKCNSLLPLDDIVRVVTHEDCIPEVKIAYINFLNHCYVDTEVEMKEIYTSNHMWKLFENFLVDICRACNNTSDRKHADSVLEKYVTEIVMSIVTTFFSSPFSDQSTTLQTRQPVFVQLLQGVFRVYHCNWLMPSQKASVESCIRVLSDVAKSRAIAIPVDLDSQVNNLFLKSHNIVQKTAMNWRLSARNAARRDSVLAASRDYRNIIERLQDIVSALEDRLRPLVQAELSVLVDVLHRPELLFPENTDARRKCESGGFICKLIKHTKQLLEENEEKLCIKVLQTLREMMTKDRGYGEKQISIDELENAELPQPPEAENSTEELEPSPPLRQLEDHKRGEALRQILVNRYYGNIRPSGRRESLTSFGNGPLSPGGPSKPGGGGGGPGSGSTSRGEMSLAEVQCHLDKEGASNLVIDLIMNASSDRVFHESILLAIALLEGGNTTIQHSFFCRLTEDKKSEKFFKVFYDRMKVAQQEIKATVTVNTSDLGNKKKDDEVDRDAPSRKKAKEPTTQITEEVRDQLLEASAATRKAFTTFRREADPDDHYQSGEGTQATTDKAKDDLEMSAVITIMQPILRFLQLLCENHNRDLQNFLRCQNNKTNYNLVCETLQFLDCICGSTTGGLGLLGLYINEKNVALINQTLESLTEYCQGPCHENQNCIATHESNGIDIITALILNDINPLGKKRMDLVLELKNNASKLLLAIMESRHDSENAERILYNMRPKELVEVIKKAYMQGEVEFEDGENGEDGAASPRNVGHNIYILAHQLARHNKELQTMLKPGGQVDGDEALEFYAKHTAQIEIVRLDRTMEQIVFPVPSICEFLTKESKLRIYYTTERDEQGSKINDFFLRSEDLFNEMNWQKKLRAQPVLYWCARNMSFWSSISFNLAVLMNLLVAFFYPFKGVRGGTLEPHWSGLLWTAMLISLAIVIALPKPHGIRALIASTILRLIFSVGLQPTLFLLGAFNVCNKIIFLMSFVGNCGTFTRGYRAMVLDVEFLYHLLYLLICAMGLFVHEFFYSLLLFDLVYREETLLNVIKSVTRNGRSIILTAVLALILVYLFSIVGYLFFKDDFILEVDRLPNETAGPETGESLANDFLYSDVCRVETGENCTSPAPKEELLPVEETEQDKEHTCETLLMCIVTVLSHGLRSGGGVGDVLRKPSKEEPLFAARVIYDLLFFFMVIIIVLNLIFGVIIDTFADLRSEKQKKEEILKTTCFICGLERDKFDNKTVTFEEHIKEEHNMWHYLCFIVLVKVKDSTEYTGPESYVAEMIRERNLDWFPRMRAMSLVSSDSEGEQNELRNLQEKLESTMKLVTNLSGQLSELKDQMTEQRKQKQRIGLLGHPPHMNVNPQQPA
The experiment is described as follows: competitive [3H]IP3 radioligand binding on immunoprecipitated receptor. To be noted: read-out: apparent EC50. The text has this:
competitive [3H]IP3 radioligand binding on immunoprecipitated receptor on WT rIP3R1 | the apparent EC50 for binding was not markedly altered under these conditions

The structures appear in SMILES notation.

For the compound `O=P(O)(O)O[C@@H]1[C@H](O)[C@H](O)[C@@H](OP(=O)(O)O)[C@H](OP(=O)(O)O)[C@H]1O` [IP3], the values for the EC50 on WT rIP3R1 [1] and on WT rIP3R1 [2] were 70.2 ± 1.6 nM and 45.7 ± 5.3 nM, respectively. Moreover, the “[3H]IP3 binding on immunoprecipitated receptor” value on WT mIP3R2 is given as “IP3 binding to mIP3R2^GS was comparable with WT mIP3R2”.
